Results from the PolyMetriX glass transition set.
± gives the standard deviation of the reports.

SMILES | glass transition temperature
*CCC1C(=O)N(CCCCCCCCCCCC)C(=O)C1* (repeat unit) | 55.40 °C
*Oc1ccccc1C(=O)OC(=O)c1ccccc1OC(=O)c1cccc(C(*)=O)c1 (repeat unit) | 105.00 °C
*c1ccc(*)c(C(=O)c2ccc(C)cc2)c1 (repeat unit) | 202.00 °C
*CC#CC#CCOc1ccc(C(=O)OCCN(CCOC(=O)c2ccc(O*)cc2)c2ccc(/N=N/c3ccc([N+](=O)[O-])cc3)cc2)cc1 (repeat unit) | 100.00 °C
*CC(*)c1cc(Br)ccc1OCC (repeat unit) | 80.00 °C
*CCCCCCn1ccc(-c2cccc(-c3ccn(*)n3)c2)n1 (repeat unit) | 70.00 °C
*CCN(CCOC(=O)Nc1ccc(C)c(NC(=O)O*)c1)c1ccc(-c2nc3ccc([N+](=O)[O-])cc3o2)cc1 (repeat unit) | 156.00 °C
*CCOC(=O)C1CCC(C(=O)OCCOc2ccc(C(C)(C)c3ccc(O*)cc3)cc2)CC1 (repeat unit) | 57.00 °C
*CCC[Si](*)(C)C (repeat unit) | -55.00 °C
*CCCCCCOC(=O)CCCCC(=O)O* (repeat unit) | -69.00 °C
*Oc1ccc(C(C)(C)c2ccc(OC(=O)OCC3CCC(COC(*)=O)CC3)cc2)cc1 (repeat unit) | 90.40 °C
*CC(*)C(=O)c1ccccc1 (repeat unit) [Poly(phenyl vinyl ketone)] | 60.80 ± 17 °C
*OCC(F)(F)C(F)(F)C(F)(F)COc1nc(F)nc(*)c1F (repeat unit) | 0.00 °C
*Oc1ccc(CC(NC(=O)CCc2ccc(OC(=O)CCCCC(*)=O)cc2)C(=O)OC)cc1 (repeat unit) | 70.00 °C
*C(=O)OC1CC2CC(OC(=O)N3CCN(*)CC3)CC(C1)O2 (repeat unit) | 113.00 °C
*CCN(*)C(=O)CSC (repeat unit) | 39.00 °C
*C(=O)OCCN(CCOC(=O)c1ccc2c(c1)C(=O)N(c1cccc(N3C(=O)c4ccc(*)cc4C3=O)c1)C2=O)c1ccc(/N=N/c2ccc(C)cc2)cc1 (repeat unit) | 171.00 °C
*CC(OC1CCCCC1)C1C(=O)OC(=O)C1* (repeat unit) | 201.00 °C
*CC(COc1ccc(C(C)(C)c2ccc(O*)cc2)cc1)OC(C)=O (repeat unit) | 60.00 °C
*Oc1ccc(C(C)(CCC#N)c2ccc(OC(*)=O)cc2)cc1 (repeat unit) | 150.00 °C
*CCN(*)C(=O)c1cc(F)ccc1F (repeat unit) | 112.00 °C
*CCCCCOC(=O)c1ccc2cc(C(=O)O*)ccc2c1 (repeat unit) | 58.50 °C
*/C=C/C1CC(*)C2C(=O)N(c3cc(C(F)(F)F)cc(C(F)(F)F)c3)C(=O)C12 (repeat unit) | 162.00 °C
*Oc1ccc(CC(NC(=O)Cc2ccc(OC(=O)CCCC(*)=O)cc2)C(=O)OCC)cc1 (repeat unit) | 65.00 °C
*CCCNC(=O)Cc1ccc(C(=O)N*)cc1 (repeat unit) | 109.00 °C
*C1CC2CC1C(*)C2CCCC (repeat unit) | 235.00 °C
*c1cc(CC(=O)OCCN(CC)c2ccc(/N=N/c3ccc([N+](=O)[O-])cc3)cc2)c(*)s1 (repeat unit) | 102.00 °C

Next, values leading:

glass transition temperature | SMILES
181.00 °C | *Oc1ccc(C2(c3ccc(OC(=O)CCCC(*)=O)cc3)c3cc(N(C)C)ccc3-c3ccc([N+](=O)[O-])cc32)cc1 (repeat unit)
226.00 °C | *C(=O)Oc1ccc(C2(c3ccc(OC(=O)c4ccc5c(c4)C(=O)N(c4ccc(-c6ccc(N7C(=O)c8ccc(*)cc8C7=O)cc6C)c(C)c4)C5=O)cc3)CC3CC2C2CCCC32)cc1 (repeat unit)
57.00 °C | *CC(*)c1cc(C(=O)OCCCCCCCC)ccc1-c1ccc(OCCCCCCCC)cc1 (repeat unit)
197.00 °C | *Oc1ccc(S(=O)(=O)c2ccc(Oc3ccc(C4(c5ccc(*)c(C)c5)CCCCC4)cc3C)cc2)cc1 (repeat unit)
55.00 °C | *CC(*)(C)C(=O)OCCCCCCCCCCOc1ccc(/N=N/c2ccc([N+](=O)[O-])cc2)cc1 (repeat unit)
236.00 °C | *Oc1cccc2ccc(Oc3ccc(NC(=O)c4ccc(Oc5ccc(C(=O)Nc6ccc(*)cc6)cc5)cc4)cc3)cc12 (repeat unit)
37.00 °C | *c1cc(OCCCC)c(*)cc1OCCCC (repeat unit)
8.00 °C | *O[Si](*)(C)CCCCCCOc1ccc(C(=O)Oc2ccc(C#N)cc2)cc1 (repeat unit)
-4.00 °C | *CCCCCCCCCCC(c1ccc(O)cc1)C(*)c1ccc(O)cc1C (repeat unit)
322.00 °C | *c1ccc2c(c1)C(=O)N(c1ccc(C(=O)Nc3ccc(Oc4ccc(NC(=O)c5ccc(N6C(=O)c7ccc(C(*)(C(F)(F)F)C(F)(F)F)cc7C6=O)cc5)cc4)cc3)cc1)C2=O (repeat unit)
193.00 °C | *c1ccc(Oc2ccc(N3C(=O)C(Cl)=C(Oc4ccc(C(c5ccc(OC6=C(Cl)C(=O)N(*)C6=O)cc5)(C(F)(F)F)C(F)(F)F)cc4)C3=O)cc2)cc1 (repeat unit)
215.00 °C | *C(=O)c1ccc2c(c1)C(=O)N(c1ccc(Oc3ccc(C(=O)c4ccc(Oc5ccc(C(=O)c6ccc(Oc7ccc(N8C(=O)c9ccc(*)cc9C8=O)cc7)cc6)cc5)cc4)cc3)cc1)C2=O (repeat unit)
165.00 °C | *Oc1ccc(NC(=O)c2ccc(OC3COC4C(Oc5ccc(C(=O)Nc6ccc(OC7COC8C(*)COC78)cc6)cc5)COC34)cc2)cc1 (repeat unit)
292.50 ± 9.3 °C | *C(=O)c1ccc2c(c1)C(=O)N(c1ccc(Cc3ccc(N4C(=O)c5ccc(*)cc5C4=O)cc3)cc1)C2=O (repeat unit)
282.00 °C | *Oc1ccc(S(=O)(=O)c2ccc(-c3ccc(S(=O)(=O)c4ccc(*)cc4)cc3)cc2)cc1 (repeat unit)
190.00 °C | *=Nc1cccc(S(=O)(=O)c2cccc(/N=C3/OC(=O)c4ccc(Oc5ccc6c(c5)C(=O)OC6=*)cc43)c2)c1 (repeat unit)
351.00 °C | *c1ccc(-c2ccc(-c3nc4ccc(Oc5ccc6nc(*)c(-c7ccccc7)c(-c7ccccc7)c6c5)cc4c(-c4ccccc4)c3-c3ccccc3)cc2)cc1 (repeat unit)
160.00 °C | *Oc1ccc(NC(=O)CCCCCCCC(=O)Nc2ccc(*)cc2)cc1 (repeat unit)
67.00 °C | *CC(*)C(=O)OCCCCCCCCCCCCOc1ccc(C(=O)Oc2ccc(-c3cccc(OC(=O)c4ccc(OC(=O)c5ccc(OCCCCCCCCCCCC)cc5)cc4)c3)cc2)cc1 (repeat unit)
53.80 °C | *c1nnc(-c2cc(CCCCCCCCCC)c(-c3sc(-c4nnc(-c5cc(OCCCCCCCC)c(*)cc5OCCCCCCCC)o4)cc3CCCCCCCCCC)s2)o1 (repeat unit)

glass transition temperature | SMILES
97.00 °C | *CCCCCCCCCCCN1C(=O)c2ccc(C(=O)Oc3ccc(-c4ccc(OC(=O)c5ccc6c(c5)C(=O)N(*)C6=O)cc4)cc3)cc2C1=O (repeat unit)
392.00 °C | *c1ccc(-c2ccc(-c3cc(-c4ccccc4)c4cc5c(-c6ccccc6)cc(*)nc5cc4n3)cc2)cc1 (repeat unit)
381.50 °C | *c1ccc(-c2cc(C(C)(C)C)c(Oc3ccc(N4C(=O)c5ccc(-c6ccc7c(c6)C(=O)N(*)C7=O)cc5C4=O)cc3)c(C(C)(C)C)c2)cc1 (repeat unit)
110.00 °C | *CC(*)(C)C(=O)OCCCCCCOc1ccc(/N=N/c2ccc(OCCCCCCCCCC)cc2)cc1 (repeat unit)
320.20 °C | *c1ccc(Oc2ccc(N3C(=O)c4ccc(C(=O)c5ccc6c(c5)C(=O)N(c5ncc(*)s5)C6=O)cc4C3=O)cc2)cc1 (repeat unit)
79.00 °C | *c1ccc(-c2cc(-c3ccc(OCCCCCCCCCCCC)cc3)cc(-c3ccc(-c4ccc5c(c4)C(CCCCCC)(CCCCCC)c4cc(*)ccc4-5)cc3)c2-c2ccc(OCCCCCCCCCCCC)cc2)cc1 (repeat unit)
-54.00 °C | *CCCCCCCCCCOC(=O)CCCCCCCCC(=O)O* (repeat unit)
19.50 °C | *CC(*)C(=O)OCCCCCCOc1ccc(C(=O)Oc2ccc(C#N)cc2)cc1 (repeat unit)
214.00 °C | *Oc1ccc(C2(c3ccc(Oc4ccc(C(=O)c5ccc(*)cc5)cc4)cc3)CCC3CCCCC3C2)cc1 (repeat unit)
126.00 °C | *CCCCCCCCCCC(=O)Nc1ccc(Oc2cccc(NC(=O)CCCCCCCCCCN3C(=O)c4ccc(C(=O)c5ccc6c(c5)C(=O)N(*)C6=O)cc4C3=O)c2)cc1 (repeat unit)
65.00 °C | *CC(COc1ccc(C(C)(C)c2ccc(O*)cc2)cc1)OC(=O)c1ccccc1 (repeat unit)
122.00 °C | *Oc1ccc(C(=O)c2ccc(C(=O)c3ccc(Oc4cccc(Cc5cccc(*)c5)c4)cc3)cc2)cc1 (repeat unit)
-19.00 °C | *CC(*)(CC(=O)OCCCCCCCC)C(=O)OCCCCCCCC (repeat unit)
245.00 °C | *c1ccc(Oc2ccc(C(=O)c3ccc(Oc4ccc(-c5c6c(c(*)c7ccccc57)C(=O)N(c5ccccc5-c5ccccc5)C6=O)cc4)cc3)cc2)cc1 (repeat unit)
180.50 °C | *Oc1ccc(C(C)(C)C)cc1Oc1ccc(S(=O)(=O)c2ccc(*)cc2)cc1 (repeat unit)
148.00 °C | *Oc1cc2ccccc2cc1OC(=O)c1ccc(Oc2ccc(C(*)=O)cc2)cc1 (repeat unit)
170.00 °C | *Oc1ccc(OC(=O)c2cc(/N=N/c3ccc(OCC)cc3)ccc2-c2ccc(/N=N/c3ccc(OCC)cc3)cc2C(*)=O)cc1 (repeat unit)
350.00 °C | *c1ccc(Oc2ccc(-c3nc4cc5sc(*)nc5cc4s3)cc2)cc1 (repeat unit)
202.00 °C | *Oc1ccc(S(=O)(=O)c2ccc(Oc3ccc(C(C)(C)c4ccc(*)cc4)cc3)cc2)c(N)c1 (repeat unit)
